Experiment [1] deals with T1, Serine/threonine-protein kinase MAK (Homo sapiens) (UniProt P20794).
T1 sequence (whole entry): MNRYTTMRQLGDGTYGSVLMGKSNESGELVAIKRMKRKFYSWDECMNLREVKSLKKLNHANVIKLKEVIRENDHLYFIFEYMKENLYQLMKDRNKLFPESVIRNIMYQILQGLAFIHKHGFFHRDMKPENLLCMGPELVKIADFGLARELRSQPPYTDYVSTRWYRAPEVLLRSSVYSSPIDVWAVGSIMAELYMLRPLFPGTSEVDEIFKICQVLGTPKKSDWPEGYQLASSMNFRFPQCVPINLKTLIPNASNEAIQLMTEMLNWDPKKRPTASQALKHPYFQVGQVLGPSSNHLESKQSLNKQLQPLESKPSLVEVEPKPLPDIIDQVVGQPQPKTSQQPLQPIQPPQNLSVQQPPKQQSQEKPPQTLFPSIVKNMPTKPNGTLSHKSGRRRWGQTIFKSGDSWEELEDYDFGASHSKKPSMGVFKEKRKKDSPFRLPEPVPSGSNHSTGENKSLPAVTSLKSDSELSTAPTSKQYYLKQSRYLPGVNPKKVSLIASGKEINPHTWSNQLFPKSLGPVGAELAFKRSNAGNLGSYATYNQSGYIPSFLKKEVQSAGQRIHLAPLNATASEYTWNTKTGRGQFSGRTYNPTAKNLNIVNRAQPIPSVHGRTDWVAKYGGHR
As to conditions: at 10 µM.

In experiment [2] the target is Vascular endothelial growth factor receptor 1 (Homo sapiens) (UniProt P17948). Description: Selectivity interaction (Ambit KINOMEscan and KiNATiv profiling in Jurkat cells) EUB0000090b FLT1. The conditions noted are these: at 1 µM. Format: cell-based.
Chain of Vascular endothelial growth factor receptor 1 (Homo sapiens) (P17948 whole entry): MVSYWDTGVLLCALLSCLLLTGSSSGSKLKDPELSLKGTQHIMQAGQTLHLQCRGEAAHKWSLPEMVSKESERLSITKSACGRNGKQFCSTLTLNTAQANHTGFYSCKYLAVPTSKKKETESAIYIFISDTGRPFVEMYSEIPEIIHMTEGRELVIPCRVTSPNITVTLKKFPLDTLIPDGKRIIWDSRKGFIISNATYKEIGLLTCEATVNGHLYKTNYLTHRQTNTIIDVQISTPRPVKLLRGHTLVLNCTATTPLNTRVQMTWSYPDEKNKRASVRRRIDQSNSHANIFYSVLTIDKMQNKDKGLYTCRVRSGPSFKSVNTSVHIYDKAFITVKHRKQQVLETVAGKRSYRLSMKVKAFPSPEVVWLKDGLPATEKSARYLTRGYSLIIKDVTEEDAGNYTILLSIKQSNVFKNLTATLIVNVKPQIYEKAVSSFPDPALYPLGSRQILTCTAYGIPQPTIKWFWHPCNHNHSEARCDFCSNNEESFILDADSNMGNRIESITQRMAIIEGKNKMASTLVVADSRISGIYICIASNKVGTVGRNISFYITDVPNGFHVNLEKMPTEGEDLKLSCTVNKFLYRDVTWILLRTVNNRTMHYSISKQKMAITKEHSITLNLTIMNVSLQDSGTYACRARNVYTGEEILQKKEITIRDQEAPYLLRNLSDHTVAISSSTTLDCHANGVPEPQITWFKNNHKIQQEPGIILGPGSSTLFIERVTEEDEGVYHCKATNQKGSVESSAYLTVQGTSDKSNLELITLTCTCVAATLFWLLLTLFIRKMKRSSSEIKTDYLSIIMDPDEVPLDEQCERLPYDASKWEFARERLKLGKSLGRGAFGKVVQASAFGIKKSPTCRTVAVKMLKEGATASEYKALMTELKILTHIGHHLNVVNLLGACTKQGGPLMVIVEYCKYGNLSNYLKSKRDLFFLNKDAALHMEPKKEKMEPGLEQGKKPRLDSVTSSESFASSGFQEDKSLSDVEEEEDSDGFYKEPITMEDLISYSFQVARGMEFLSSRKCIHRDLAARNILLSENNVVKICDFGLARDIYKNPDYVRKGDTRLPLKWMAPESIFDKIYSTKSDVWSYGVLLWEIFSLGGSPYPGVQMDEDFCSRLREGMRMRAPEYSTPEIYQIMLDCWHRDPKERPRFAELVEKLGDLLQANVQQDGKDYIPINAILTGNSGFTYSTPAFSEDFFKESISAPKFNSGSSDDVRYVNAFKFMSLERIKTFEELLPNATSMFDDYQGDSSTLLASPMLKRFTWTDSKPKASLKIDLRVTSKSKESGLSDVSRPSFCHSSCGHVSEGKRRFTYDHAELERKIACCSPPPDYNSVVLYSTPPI
Experiment [3] addresses T2, Uncharacterized serine/threonine-protein kinase SBK3 (Homo sapiens) (UniProt P0C264).
T2 sequence (whole entry): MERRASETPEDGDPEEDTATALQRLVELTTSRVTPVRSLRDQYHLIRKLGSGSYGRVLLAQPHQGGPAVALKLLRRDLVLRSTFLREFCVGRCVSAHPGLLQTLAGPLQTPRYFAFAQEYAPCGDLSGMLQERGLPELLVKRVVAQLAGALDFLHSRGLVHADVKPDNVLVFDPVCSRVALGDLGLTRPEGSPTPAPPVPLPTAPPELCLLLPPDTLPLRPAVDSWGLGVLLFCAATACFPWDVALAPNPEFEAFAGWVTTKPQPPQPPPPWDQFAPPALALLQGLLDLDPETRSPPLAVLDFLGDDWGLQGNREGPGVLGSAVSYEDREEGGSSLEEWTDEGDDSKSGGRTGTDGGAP
Description: Selectivity interaction (Ambit KINOMEscan and KiNATiv profiling in Jurkat cells) EUB0000090b SBK3. Format: cell-based. As to conditions: at 1 µM.

Experiment [4] addresses T3, Serine/threonine-protein kinase 36 (Homo sapiens) (UniProt Q9NRP7).
T3 sequence (whole entry): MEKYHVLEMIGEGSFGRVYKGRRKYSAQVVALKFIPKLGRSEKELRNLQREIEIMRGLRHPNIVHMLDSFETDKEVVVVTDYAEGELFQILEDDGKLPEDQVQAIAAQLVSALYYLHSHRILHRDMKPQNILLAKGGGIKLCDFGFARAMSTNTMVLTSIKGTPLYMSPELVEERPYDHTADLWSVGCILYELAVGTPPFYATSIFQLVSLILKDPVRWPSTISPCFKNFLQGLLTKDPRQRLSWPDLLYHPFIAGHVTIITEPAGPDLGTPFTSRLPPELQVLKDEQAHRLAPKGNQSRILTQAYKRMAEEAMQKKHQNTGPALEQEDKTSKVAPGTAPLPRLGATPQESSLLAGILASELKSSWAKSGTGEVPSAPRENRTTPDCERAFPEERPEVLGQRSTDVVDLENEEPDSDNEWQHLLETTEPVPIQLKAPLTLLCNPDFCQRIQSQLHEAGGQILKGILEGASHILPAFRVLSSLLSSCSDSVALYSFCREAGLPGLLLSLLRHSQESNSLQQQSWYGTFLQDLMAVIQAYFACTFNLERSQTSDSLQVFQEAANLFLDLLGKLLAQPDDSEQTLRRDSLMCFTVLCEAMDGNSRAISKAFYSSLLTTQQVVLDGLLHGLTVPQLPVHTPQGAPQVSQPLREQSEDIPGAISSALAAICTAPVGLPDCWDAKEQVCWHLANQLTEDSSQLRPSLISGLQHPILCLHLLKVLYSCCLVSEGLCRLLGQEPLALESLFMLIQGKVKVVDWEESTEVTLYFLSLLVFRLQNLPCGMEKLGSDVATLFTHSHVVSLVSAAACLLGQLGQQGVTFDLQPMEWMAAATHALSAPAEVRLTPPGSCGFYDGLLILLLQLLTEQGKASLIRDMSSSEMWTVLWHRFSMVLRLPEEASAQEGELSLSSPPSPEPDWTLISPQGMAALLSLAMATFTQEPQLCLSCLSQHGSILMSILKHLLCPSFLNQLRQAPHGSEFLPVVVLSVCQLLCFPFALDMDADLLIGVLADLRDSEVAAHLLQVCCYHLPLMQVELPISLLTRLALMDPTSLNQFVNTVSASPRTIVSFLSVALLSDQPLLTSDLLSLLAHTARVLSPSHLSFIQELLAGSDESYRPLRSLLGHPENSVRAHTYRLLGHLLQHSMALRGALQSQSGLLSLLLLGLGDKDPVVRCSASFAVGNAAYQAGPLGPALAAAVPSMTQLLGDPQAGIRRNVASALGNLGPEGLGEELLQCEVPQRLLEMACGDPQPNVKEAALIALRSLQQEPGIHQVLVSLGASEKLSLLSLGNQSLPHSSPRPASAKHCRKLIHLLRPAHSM
Description: Selectivity interaction (Ambit KINOMEscan and KiNATiv profiling in Jurkat cells) EUB0000090b STK36. Format: cell-based. The conditions noted are these: at 1 µM.

Experiment [5] addresses Muscarinic acetylcholine receptor M5 (Homo sapiens) (UniProt P08912). Briefly: Selectivity interaction (GPCR panel (PDSP screen)) EUB0001079a CHRM5. As to conditions: at 10 µM.
For experiment [6], the target named is Calcium/calmodulin-dependent protein kinase type II subunit gamma (Homo sapiens) (UniProt Q13555). Briefly: Selectivity interaction (KinomeScan (DiscoverX)) EUB0001079a CAMK2G. The conditions noted are these: at 1 µM.
Chain of Calcium/calmodulin-dependent protein kinase type II subunit gamma (Homo sapiens) (Q13555 whole entry): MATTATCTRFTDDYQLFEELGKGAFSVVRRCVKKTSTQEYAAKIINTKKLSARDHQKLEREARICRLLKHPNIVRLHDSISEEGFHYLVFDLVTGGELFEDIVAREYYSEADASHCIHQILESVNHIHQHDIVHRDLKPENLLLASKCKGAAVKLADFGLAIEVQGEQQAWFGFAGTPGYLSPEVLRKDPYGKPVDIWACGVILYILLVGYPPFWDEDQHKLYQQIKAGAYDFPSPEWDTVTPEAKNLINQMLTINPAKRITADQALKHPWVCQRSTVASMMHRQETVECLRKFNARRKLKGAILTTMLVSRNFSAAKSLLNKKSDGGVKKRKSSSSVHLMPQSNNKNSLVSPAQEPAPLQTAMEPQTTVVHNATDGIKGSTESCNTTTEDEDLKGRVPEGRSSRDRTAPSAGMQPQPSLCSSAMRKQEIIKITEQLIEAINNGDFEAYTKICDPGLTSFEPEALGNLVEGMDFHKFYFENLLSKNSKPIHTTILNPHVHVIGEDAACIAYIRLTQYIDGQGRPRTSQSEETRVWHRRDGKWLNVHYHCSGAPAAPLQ
Experiment [7] has as its target Acetylcholine receptor subunit alpha (Homo sapiens, UniProt P02708). Briefly: Selectivity interaction (Panel of kinases, GPCRs, ion channels and transporters (enzymatic assay)) EUB0000223bCl CHRNA1.
Experiment [8] addresses LIM domain kinase 1 (Homo sapiens) (UniProt P53667). Description: Selectivity interaction (KinomeScan (DiscoverX)) EUB0000666a LIMK1. As to conditions: at 10 µM.
Experiment [9] addresses Mitogen-activated protein kinase kinase kinase kinase 1 (Homo sapiens) (UniProt Q92918). Briefly: Selectivity interaction (KinomeScan (DiscoverX)) EUB0000618a MAP4K1. The conditions noted are these: at 10 µM.
Experiment [10] deals with Cyclin-dependent kinase 9 (Homo sapiens, UniProt P50750). Briefly: Selectivity interaction (KinomeScan (DiscoverX)) EUB0000618a CDK9. As to conditions: at 10 µM.
Chain of Cyclin-dependent kinase 9 (P50750 whole entry): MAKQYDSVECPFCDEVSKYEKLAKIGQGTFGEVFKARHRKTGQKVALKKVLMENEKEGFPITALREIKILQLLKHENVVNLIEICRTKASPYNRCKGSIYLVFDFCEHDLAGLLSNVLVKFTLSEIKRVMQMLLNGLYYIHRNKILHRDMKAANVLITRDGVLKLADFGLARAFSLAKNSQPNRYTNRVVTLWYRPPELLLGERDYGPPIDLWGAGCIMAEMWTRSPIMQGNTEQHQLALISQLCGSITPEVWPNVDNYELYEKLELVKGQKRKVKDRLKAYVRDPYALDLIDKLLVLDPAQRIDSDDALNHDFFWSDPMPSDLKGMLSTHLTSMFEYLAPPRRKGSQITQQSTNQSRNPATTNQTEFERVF

Chain of Mitogen-activated protein kinase kinase kinase kinase 1 (Homo sapiens) (Q92918 whole entry, looked up): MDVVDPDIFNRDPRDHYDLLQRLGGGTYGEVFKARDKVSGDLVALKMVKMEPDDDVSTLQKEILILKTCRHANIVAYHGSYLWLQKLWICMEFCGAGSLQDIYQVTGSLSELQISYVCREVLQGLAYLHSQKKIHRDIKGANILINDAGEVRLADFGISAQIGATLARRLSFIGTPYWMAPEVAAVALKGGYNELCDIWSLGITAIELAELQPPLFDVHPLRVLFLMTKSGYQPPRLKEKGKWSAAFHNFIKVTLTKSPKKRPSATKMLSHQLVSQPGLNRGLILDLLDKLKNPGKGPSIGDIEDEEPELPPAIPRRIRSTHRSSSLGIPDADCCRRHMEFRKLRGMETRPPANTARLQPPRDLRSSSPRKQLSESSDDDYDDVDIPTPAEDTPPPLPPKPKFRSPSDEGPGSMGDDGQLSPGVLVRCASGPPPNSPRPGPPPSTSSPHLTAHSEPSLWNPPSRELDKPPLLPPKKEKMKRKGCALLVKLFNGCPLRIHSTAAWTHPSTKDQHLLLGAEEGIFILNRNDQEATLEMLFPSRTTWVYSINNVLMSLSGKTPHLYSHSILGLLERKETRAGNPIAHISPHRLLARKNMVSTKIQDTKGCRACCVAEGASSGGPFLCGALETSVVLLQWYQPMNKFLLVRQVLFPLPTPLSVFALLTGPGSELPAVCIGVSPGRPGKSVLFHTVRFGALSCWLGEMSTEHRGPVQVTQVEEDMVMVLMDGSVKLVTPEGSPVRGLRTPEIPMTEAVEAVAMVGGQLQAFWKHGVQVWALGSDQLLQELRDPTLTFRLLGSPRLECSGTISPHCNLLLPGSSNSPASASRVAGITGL
Chain of Muscarinic acetylcholine receptor M5 (Homo sapiens) (P08912 whole entry): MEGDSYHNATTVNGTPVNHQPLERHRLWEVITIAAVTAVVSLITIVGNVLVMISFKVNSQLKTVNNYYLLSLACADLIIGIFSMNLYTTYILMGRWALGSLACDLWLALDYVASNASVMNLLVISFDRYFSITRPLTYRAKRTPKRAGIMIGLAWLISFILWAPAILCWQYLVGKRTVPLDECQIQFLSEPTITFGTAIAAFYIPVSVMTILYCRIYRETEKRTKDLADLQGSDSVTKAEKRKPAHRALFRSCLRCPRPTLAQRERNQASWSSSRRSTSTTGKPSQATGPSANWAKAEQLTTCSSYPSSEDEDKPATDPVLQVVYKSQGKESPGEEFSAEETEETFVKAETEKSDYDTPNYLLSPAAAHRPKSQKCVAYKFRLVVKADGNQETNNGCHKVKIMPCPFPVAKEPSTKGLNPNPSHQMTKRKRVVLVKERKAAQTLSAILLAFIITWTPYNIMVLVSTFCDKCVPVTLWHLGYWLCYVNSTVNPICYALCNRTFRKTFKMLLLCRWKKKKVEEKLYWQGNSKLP
Chain of Acetylcholine receptor subunit alpha (P02708 whole entry, the tested form may be a part): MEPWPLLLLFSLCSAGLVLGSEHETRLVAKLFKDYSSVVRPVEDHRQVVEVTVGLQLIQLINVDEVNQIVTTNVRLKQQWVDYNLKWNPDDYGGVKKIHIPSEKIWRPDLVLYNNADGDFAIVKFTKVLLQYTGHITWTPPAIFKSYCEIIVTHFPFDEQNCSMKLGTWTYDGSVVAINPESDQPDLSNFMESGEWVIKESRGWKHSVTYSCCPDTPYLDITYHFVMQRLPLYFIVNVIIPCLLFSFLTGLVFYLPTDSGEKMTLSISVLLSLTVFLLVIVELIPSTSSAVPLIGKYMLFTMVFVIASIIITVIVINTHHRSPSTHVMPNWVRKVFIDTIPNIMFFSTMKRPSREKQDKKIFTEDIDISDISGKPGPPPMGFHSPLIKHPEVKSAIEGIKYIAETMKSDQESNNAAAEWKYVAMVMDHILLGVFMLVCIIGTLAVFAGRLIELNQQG
Chain of LIM domain kinase 1 (Homo sapiens) (P53667 whole entry, looked up, the tested form may be a part): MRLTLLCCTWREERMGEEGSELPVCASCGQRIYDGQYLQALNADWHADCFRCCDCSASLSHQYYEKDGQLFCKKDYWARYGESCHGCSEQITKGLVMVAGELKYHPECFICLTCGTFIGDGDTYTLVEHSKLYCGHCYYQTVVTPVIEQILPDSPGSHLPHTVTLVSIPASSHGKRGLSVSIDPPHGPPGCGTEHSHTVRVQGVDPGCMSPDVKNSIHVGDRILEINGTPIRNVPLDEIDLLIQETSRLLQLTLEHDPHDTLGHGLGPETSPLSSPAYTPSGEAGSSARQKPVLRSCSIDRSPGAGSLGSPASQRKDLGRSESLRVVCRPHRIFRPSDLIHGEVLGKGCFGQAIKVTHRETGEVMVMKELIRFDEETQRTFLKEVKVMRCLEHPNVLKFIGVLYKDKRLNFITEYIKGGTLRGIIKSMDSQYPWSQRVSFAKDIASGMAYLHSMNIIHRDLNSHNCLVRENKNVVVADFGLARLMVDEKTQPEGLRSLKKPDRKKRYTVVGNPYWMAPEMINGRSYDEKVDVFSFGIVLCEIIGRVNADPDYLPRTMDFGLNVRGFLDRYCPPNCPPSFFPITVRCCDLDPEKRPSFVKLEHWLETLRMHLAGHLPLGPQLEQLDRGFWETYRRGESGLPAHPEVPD

`Cc1cc([C@@H](C)Nc2ccccc2C(=O)O)c2nc(N3CCOCC3)cc(=O)n2c1` [AZD-6482] showed a % of control in experiment [1] of 67%.

On to `CN(C)C/C=C/C(=O)Nc1ccc(C(=O)N2CCCC(Nc3ncc(Cl)c(-c4c[nH]c5ccccc45)n3)C2)cc1` (stereo not given), for which the % of control turned out to be 85% in [2], 82% in experiment [3] and 85% in experiment [4].

The compound `Nc1cnc(N2CCc3cc(S(=O)(=O)Nc4c(F)cc(Cl)cc4F)cc(N4CCCC4=O)c32)nc1` [TP-020n] showed a % of inhibition in experiment [5] of 1.45%. For the same compound, the % of control in experiment [6] worked out at 100%.

For `COc1cc(C(=O)N2CC[C@@H](O)[C@@H](N)C2)cc2nc(-c3cc4ccccc4n3CC3CC3)n(C)c12`, in experiment [7], the pXC50 stood at 5.8 M.

Take `O=C(NOC[C@H](O)CO)c1ccc(F)c(F)c1Nc1ccc(I)cc1F`: the % of control in [8] came out at 68%.

Consider `O[C@H]1CC[C@H](Nc2ncc3nc(Nc4c(F)cc(F)cc4F)n([C@H]4CCOC4)c3n2)CC1`, for which the % of control in experiment [9] worked out at 83%; in [10], 78%.

The values above are taken from ChEMBL document CHEMBL5465560, “Selectivity Literature for EUbOPEN Chemogenomic Library” (2024).
